From publication PMC7841342, “Elevated ABCB1 Expression Confers Acquired Resistance to Aurora Kinase Inhibitor GSK-1070916 in Cancer Cells” (Frontiers in Pharmacology, 2021)

Target: ABCB1 (Homo sapiens, UniProt P08183)
Test: biochemical

Chain of ABCB1 (P08183 whole entry): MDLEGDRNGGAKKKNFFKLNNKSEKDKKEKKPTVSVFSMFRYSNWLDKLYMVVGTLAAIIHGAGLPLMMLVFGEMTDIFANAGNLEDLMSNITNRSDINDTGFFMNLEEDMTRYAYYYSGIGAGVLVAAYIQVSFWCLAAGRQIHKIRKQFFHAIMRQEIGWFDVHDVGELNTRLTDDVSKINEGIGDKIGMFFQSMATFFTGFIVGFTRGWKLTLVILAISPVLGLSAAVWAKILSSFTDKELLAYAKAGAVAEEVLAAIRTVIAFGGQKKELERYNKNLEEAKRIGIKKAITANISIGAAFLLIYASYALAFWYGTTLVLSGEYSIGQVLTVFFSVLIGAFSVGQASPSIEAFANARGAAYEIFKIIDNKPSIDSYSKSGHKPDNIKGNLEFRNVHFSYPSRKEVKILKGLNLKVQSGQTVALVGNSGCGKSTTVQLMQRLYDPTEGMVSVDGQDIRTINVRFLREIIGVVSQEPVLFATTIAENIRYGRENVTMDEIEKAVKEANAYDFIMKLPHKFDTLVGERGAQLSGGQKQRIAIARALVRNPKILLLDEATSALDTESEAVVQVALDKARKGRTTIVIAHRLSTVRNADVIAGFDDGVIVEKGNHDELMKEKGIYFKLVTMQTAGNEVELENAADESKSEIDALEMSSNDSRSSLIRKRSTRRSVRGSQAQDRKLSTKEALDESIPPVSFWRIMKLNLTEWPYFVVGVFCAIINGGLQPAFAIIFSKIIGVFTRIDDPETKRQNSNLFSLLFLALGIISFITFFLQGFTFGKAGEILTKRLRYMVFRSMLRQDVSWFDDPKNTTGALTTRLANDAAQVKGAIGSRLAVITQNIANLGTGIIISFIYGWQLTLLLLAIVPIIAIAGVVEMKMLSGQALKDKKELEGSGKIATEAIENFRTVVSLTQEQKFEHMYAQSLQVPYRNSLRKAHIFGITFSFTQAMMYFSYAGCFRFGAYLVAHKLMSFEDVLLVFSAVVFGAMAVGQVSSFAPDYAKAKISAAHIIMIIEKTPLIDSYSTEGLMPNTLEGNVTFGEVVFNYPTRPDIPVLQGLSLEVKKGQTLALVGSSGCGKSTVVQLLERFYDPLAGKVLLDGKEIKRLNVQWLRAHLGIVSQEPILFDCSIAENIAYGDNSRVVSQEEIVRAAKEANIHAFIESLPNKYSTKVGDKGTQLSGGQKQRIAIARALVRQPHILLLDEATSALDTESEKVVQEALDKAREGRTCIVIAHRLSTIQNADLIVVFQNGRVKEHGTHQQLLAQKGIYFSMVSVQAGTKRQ

EC50: 830 nM
SMILES: CCn1cc(-c2ccnc3[nH]c(-c4cccc(CN(C)C)c4)cc23)c(-c2ccc(NC(=O)N(C)C)cc2)n1 [GSK-1070916]
